In patent US20260258084A1, “New Peptides as Selective IL-23 Receptor Antagonists” (Sanofi, priority 2022, published 2026):
pIC50: −log10 of the molar value. Values after ≈ are worked out from the molar mass of the structure shown. Where two headings read alike, the source gives them in different places. Starred links: 1 amine or outer side, 2 acyl side, 3 side chain; linkers in the order of their positions; H or OH if unused. Positions of bridges follow the written chain, without caps; N, C: chain ends. Non-standard residues stand in square brackets, D forms with d. Residues, ends and D or L forms follow the SMILES beside them. *: point of attachment. X3 = CN(CCCCC(=O)N[C@@H](CS[*:2])C(=O)[*:1])[*:3]; Trp(7-Me) = Cc1cccc2c(C[C@H](N)C(=O)O)c[nH]c12; X1 = O=C(CCCCN[*:3])N[C@@H](CS[*:2])C(=O)[*:1]; 2Nal = N[C@@H](Cc1ccc2ccccc2c1)C(=O)O; AEF = NCCOc1ccc(C[C@H](N)C(=O)O)cc1; 3Pal = N[C@@H](Cc1cccnc1)C(=O)O; αMeL = CC(C)C[C@](C)(N)C(=O)O; Suc = O=C(CCC(=O)[*:2])[*:1]; Thp = NC1(C(=O)O)CCOCC1; Me2NCH2CH2 = CN(C)CC*; Aib = CC(C)(N)C(=O)O; Ava = NCCCCC(=O)O; Sar = CNCC(=O)O

How the values were obtained:
[1] = molecular target: T1, human interleukin-23 receptor (recombinant human IL-23R-Fc chimera) (Homo sapiens, UniProt Q5VWK5); experiment: Human ELISA IL23/IL23R (assay for specific human IL23R antagonists); assay type: binding; settings: Table 10; read-out: Human ELISA IL23/IL23R IC50
T1 construct: Fc (IgG Fc fusion)
Procedure, shortened: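 Plates coated overnight at 4 °C with human IL23 ([…]), blocked, then serially diluted peptides added with recombinant human IL-23R-Fc (0.1 μg/ml final) for 60 min at room temperature. Bound receptor detected with anti-human IgG1-HRP and fluorogenic peroxidase substrate.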

[2] = Solubility testing of peptides at different pH; assay type: physicochemical; settings: target concentration 1 mg/ml, 2 hours agitation
Procedure, shortened: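 Solid obtained by drying down DMSO stock was taken up at 1 mg/mL in 50 mM HCl pH 1.2 or 50 mM phosphate pH 6.5, 7.4 or 9.0, agitated gently for 2 h, then filtered (0.45 μm). Solubility by UPLC-UV peak area against a DMSO reference standard curve, corrected for extinction coefficients.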

[3] = Chemical stability assessment of peptides (relative purity loss); assay type: physicochemical; settings: 24 hours at 37° C.; for Chemical stability (relative purity loss) Buffer pH 1.2: 50 mM HCl pH 1.2 + acetonitrile (1:1); for Chemical stability (relative purity loss) Buffer pH 6.5: 50 mM phosphate buffer pH 6.5 + acetonitrile (1:1); for Chemical stability (relative purity loss) Buffer pH 7.4: 50 mM phosphate buffer pH 7.4 + acetonitrile (1:1)
Procedure, shortened: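 Peptide solutions at 1 mg/ml (purity-corrected) in 1:1 acetonitrile with 50 mM HCl pH 1.2, or 50 mM phosphate pH 6.5 or pH 7.4, held 24 hours at 2° C. and 37° C. Supernatants analysed by UHPLC-UV; relative purity loss taken as percent drop in peak-area purity from 0 to 24 hours at 37° C.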

[4] = tested on: T2, Pepsin; experiment: Protease stability in simulated gastric fluid (Pepsin-SGF, FaSSGF); assay type: in vitro ADME; settings: simulated gastric fluid with pepsin (Pepsin-SGF), 60 min, 1 μM peptide, 37° C., read-out: FaSSGF 60 (min), remaining percent of peptide
T2 construct: purchased Merck Millipore
Procedure, shortened: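 Peptides at 1 μM final in pepsin-containing SGF at 37° C, sampled at 0, 60, 120 and 240 min, quenched with ethanol (0.1% HCOOH). Analysed by LCMS/MS; percent remaining from peak area relative to time 0 (set to 100%).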

[5] = tested on: Pancreatin; experiment: Protease stability in simulated intestinal fluid (Pancreatin-SIF, FaSSIF); assay type: in vitro ADME; settings: 1 μM peptide, 37° C.; for remaining at 1 h, 1 µM: 60 min, read-out: FaSSIF 60 (min), remaining percent of peptide; for remaining at 2 h, 1 µM: 120 min, read-out: FaSSIF 120 (min), remaining percent of peptide; for remaining at 4 h, 1 µM: 240 min, read-out: FaSSIF 240 (min), remaining percent of peptide
Procedure, shortened: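 Peptide (1 μM final) was incubated at 37° C in simulated intestinal fluid containing pancreatin (1 mg per 10 mL SIF concentrate). Samples were quenched with ethanol/0.1% HCOOH at 0, 60, 120 and 240 min and analysed by LC-MS/MS. Percent remaining is the peak area relative to time 0 (100%).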

[6] = 50 mM HCl buffer, 50 mM HCl pH 1.2, read-out: Solubility Buffer pH 1.2
[7] = 50 mM phosphate buffer pH 6.5, read-out: Solubility Buffer pH 6.5
[8] = 50 mM phosphate buffer pH 7.4, read-out: Solubility Buffer pH 7.4
[9] = 50 mM phosphate buffer pH 9.0, read-out: Solubility Buffer pH 9.0

pIC50 [1] | solubility at 2 h [2, 6] | solubility at 2 h [2, 7] | solubility at 2 h [2, 8] | solubility at 2 h [2, 9] | Chemical stability (relative purity loss) Buffer pH 1.2 [3] | Chemical stability (relative purity loss) Buffer pH 6.5 [3] | Chemical stability (relative purity loss) Buffer pH 7.4 [3] | remaining at 1 h, 1 µM [4] | remaining at 1 h, 1 µM [5] | remaining at 2 h, 1 µM [5] | remaining at 4 h, 1 µM [5] | Structure (SMILES)
9.59 | ≥ 970 µg/mL | 980 µg/mL (≈ 536 µM) | 210 µg/mL (≈ 115 µM) | 60 µg/mL (≈ 32.8 µM) | 11.3% | 0.0% | 0.0% | 69% | 79% | 68% | 67% | CC(=O)NCCCC[C@@H]1NC(=O)[C@H](Cc2c[nH]c3c(C)cccc23)NC(=O)[C@H]([C@@H](C)O)NC(=O)[C@H](CC(N)=O)NC(=O)[C@@H]2CSSC[C@H](NC1=O)C(=O)N[C@@H](Cc1ccc(OCCN(C)C)cc1)C(=O)N[C@@H](Cc1ccc3ccccc3c1)C(=O)N[C@@](C)(CC(C)C)C(=O)N[C@H](C(=O)N[C@@H](CC(N)=O)C(=O)N[C@@H](Cc1c[nH]cn1)C(N)=O)CCCCNC(=O)CCC(=O)N2 [compound 23] (CNT[Trp(7-Me)]K(Ac)CY(Me2NCH2CH2)[2Nal][αMeL]KNH-NH2; disulfide 1-6; linker N-10 via Suc)
9.40 | ≥ 1020 µg/mL | ≥ 1100 µg/mL | ≥ 1000 µg/mL | 300 µg/mL (≈ 162 µM) | 7.2% | 0.0% | 0.4% | 84% | 80% | 79% | 76% | Cc1cccc2c(C[C@@H]3NC(=O)[C@H]([C@@H](C)O)NC(=O)[C@H](CC(N)=O)NC(=O)[C@@H]4CSSC[C@H](NC(=O)[C@H](CC(C)C)NC3=O)C(=O)N[C@@H](Cc3ccc(OCCN(C)C)cc3)C(=O)N[C@@H](Cc3ccc5ccccc5c3)C(=O)NC3(CCOCC3)C(=O)N[C@H](C(=O)N[C@@H](CC(N)=O)C(=O)N[C@@H](Cc3cccnc3)C(=O)N(C)CC(N)=O)CCC(=O)NCCCCC(=O)N4)c[nH]c12 [compound 24] ([Ava]CNT[Trp(7-Me)]LCY(Me2NCH2CH2)[2Nal][Thp]EN[3Pal][Sar]-NH2; disulfide 2-7; lactam N-11)
9.40 | ≥ 890 µg/mL | ≥ 870 µg/mL | 810 µg/mL (≈ 463 µM) | 270 µg/mL (≈ 154 µM) | 23.8% | 0.0% | 8.7% | 82% | 81% | 82% | 73% | CC(C)C[C@]1(C)NC(=O)[C@H](Cc2ccc3ccccc3c2)NC(=O)[C@H](Cc2ccc(OCCN(C)C)cc2)NC(=O)[C@@H]2CSSC[C@H](NC(=O)CCCCNC(=O)CC[C@@H](C(=O)N[C@@H](CC(N)=O)C(=O)N[C@@H](CC(N)=O)C(N)=O)NC1=O)C(=O)N[C@@H](CC(N)=O)C(=O)N[C@@H]([C@@H](C)O)C(=O)N[C@@H](Cc1c[nH]c3ccccc13)C(=O)N[C@@H](CCC(N)=O)C(=O)N2 [compound 27] ([Ava]CNTWQCY(Me2NCH2CH2)[2Nal][αMeL]ENN-NH2; disulfide 2-7; lactam N-11)
9.32 | 740 µg/mL (≈ 474 µM) | ≥ 880 µg/mL | ≥ 870 µg/mL | 170 µg/mL (≈ 109 µM) | 10.5% | 0.0% | 1.0% | 78% | 89% | 77% | 55% | CC(=O)N[C@H]1CCCCNC(=O)[C@@H]2CSSC[C@H](NC(=O)[C@H](CCC(N)=O)NC(=O)[C@H](Cc3c[nH]c4ccccc34)NC1=O)C(=O)N[C@@H](Cc1ccc(OCCN(C)C)cc1)C(=O)N[C@@H](Cc1ccc3ccccc3c1)C(=O)NC(C)(C)C(=O)N[C@H](C(=O)N[C@@H](C)C(=O)NCC(N)=O)CCC(=O)NCCCCC(=O)N2 [compound 32] (Ac-KWQCY(Me2NCH2CH2)[2Nal][Aib]EAG-NH2; linker 1-4-8 via X1)

Continued, compound first:

Structure (SMILES) | pIC50 [1] | solubility at 2 h [2, 6] | solubility at 2 h [2, 7] | solubility at 2 h [2, 8] | solubility at 2 h [2, 9] | Chemical stability (relative purity loss) Buffer pH 1.2 [3] | Chemical stability (relative purity loss) Buffer pH 6.5 [3] | Chemical stability (relative purity loss) Buffer pH 7.4 [3] | remaining at 1 h, 1 µM [4] | remaining at 1 h, 1 µM [5] | remaining at 2 h, 1 µM [5] | remaining at 4 h, 1 µM [5]
CC(=O)N[C@H]1CCCCNC(=O)[C@@H]2CSSC[C@H](NC(=O)[C@H](CCC(N)=O)NC(=O)[C@H](Cc3c[nH]c4ccccc34)NC1=O)C(=O)N[C@@H](Cc1ccc(OCCN)cc1)C(=O)N[C@@H](Cc1ccc3ccccc3c1)C(=O)NC1(CCOCC1)C(=O)N[C@H](C(=O)N[C@@H](CC(N)=O)C(=O)NCC(N)=O)CCC(=O)N(C)CCCCC(=O)N2 [compound 16] (Ac-KWQC[AEF][2Nal][Thp]ENG-NH2; linker 1-4-8 via X3) | 9.48 | ≥ 1070 µg/mL | ≥ 950 µg/mL | ≥ 1000 µg/mL | 810 µg/mL (≈ 496 µM) | 13.2% | 1.1% | 4.2% | 62% | 83% | 67% | 50%
CC(=O)N[C@H]1CCCCNC(=O)[C@@H]2CSSC[C@H](NC(=O)[C@H](CCC(N)=O)NC(=O)[C@H](Cc3c[nH]c4ccccc34)NC1=O)C(=O)N[C@@H](Cc1ccc(OCCN)cc1)C(=O)N[C@@H](Cc1ccc3ccccc3c1)C(=O)NC1(CCOCC1)C(=O)N[C@H](C(=O)N[C@@H](C)C(=O)NCC(N)=O)CCC(=O)N(C)CCCCC(=O)N2 [compound 17] (Ac-KWQC[AEF][2Nal][Thp]EAG-NH2; linker 1-4-8 via X3) | 9.55 | ≥ 1030 µg/mL | ≥ 1000 µg/mL | ≥ 970 µg/mL | ≥ 880 µg/mL | 5.6% | 0.0% | 0.0% | 71% | 81% | 75% | 64%
CC(=O)N[C@H]1CCCCNC(=O)[C@@H]2CSSC[C@H](NC(=O)[C@H](CCC(N)=O)NC(=O)[C@H](Cc3c[nH]c4ccccc34)NC1=O)C(=O)N[C@@H](Cc1ccc(OCCN)cc1)C(=O)N[C@@H](Cc1ccc3ccccc3c1)C(=O)N[C@@](C)(CC(C)C)C(=O)N[C@H](C(=O)N[C@@H](C)C(=O)NCC(N)=O)CCC(=O)N(C)CCCCC(=O)N2 [compound 18] (Ac-KWQC[AEF][2Nal][αMeL]EAG-NH2; linker 1-4-8 via X3) | 9.15 | 10 µg/mL (≈ 6.29 µM) | < 10 µg/mL | < 10 µg/mL | < 10 µg/mL | 11.4% | 0.1% | 0.0% | 60% | 81% | 76% | 76%
CC(=O)N[C@H]1CCCCNC(=O)[C@@H]2CSSC[C@H](NC(=O)[C@H](CCC(N)=O)NC(=O)[C@H](Cc3c[nH]c4ccccc34)NC1=O)C(=O)N[C@@H](Cc1ccc(OCCN)cc1)C(=O)N[C@@H](Cc1ccc3ccccc3c1)C(=O)NC(C)(C)C(=O)N[C@H](C(=O)N[C@@H](C)C(=O)N[C@H](CC(C)C)C(N)=O)CCC(=O)N(C)CCCCC(=O)N2 [compound 19] (Ac-KWQC[AEF][2Nal][Aib]EA[dL]-NH2; linker 1-4-8 via X3) | 9.13 | 10 µg/mL (≈ 6.24 µM) | 20 µg/mL (≈ 12.5 µM) | < 10 µg/mL | < 10 µg/mL | 7.9% | 0.0% | 0.0% | 79% | 92% | 81% | 76%
